Test results from patent US20120214802A1, “PYRROLIDINE COMPOUNDS WHICH INHIBIT BETA-SECRETASE ACTIVITY AND METHODS OF USE THEREOF” (priority 2009, published 2012).
Like-named read-outs stand apart in the source and are kept apart here.

Key:
[1] = target: memapsin 2 (Homo sapiens, UniProt P56817); assay: Inhibition of memapsin 2 beta-secretase activity (fluorogenic substrate FS-2); format: biochemical; conditions: pH 4, 37° C., read-out: M2 Ki
Outline: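 Memapsin 2 pre-incubated with compound for 20 min at pH 4, 37° C. Reaction started with fluorogenic substrate FS-2, […], derived from Swedish-variant APP beta-secretase site; inhibition measured from fluorescence.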

[2] = target: T1, memapsin 2 (Cricetulus griseus, UniProt G3IAK4); assay: Cellular Aβ IC50 determination (Aβ40 sandwich ELISA); format: cell-based, Chinese hamster; conditions: CHO cells over-expressing human APP695 with London and Swedish mutations, 24 h, read-out: M2 IC50
T1 construct: endogenous in cells; host or cells: Chinese hamster ovary cells over-expressing human APP695 (London + Swedish)
Outline: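 CHO cells overexpressing human APP695 (London and Swedish mutations) treated 48 h post-seeding with serially diluted compounds (top near 4 μM, 0.4% DMSO), 24 h at 37° C, 5% CO2. Medium Aβ40 measured by sandwich ELISA; levels relative to control fitted to 4-parameter IC50 model.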

[3] = target: T2, memapsin 1 (Homo sapiens, UniProt Q9Y5Z0); assay: Inhibition of memapsin 1 beta-secretase activity (MALDI-TOF, substrate ELDLAVEFWHDR); format: biochemical; conditions: read-out: M1 Ki
T2 sequence (Q9Y5Z0 63-518): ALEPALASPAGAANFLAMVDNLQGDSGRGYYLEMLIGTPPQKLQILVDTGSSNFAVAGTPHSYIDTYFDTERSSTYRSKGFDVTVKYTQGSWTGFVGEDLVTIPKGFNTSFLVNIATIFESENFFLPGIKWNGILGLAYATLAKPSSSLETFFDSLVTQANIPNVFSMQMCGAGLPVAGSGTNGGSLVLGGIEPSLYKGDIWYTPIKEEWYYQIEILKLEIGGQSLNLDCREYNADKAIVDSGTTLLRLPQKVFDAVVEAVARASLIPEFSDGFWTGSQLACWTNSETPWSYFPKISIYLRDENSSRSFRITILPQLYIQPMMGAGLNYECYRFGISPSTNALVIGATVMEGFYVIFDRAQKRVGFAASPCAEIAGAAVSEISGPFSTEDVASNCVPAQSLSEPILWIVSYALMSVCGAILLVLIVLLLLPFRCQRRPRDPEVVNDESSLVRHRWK
Procedure: [The source words this procedure for another target and reports this target under the same test.] (§1) A substrate peptide NH3-ELDLAVEFWHDR-CO2 (SEQ ID NO.: 1) was dissolved at 2 mg/mL in 10% glacial acetic acid and diluted into 0.009M NaOH to obtain μM concentration at pH 4.1. After equilibration at 37 degrees C., the reactions were initiated by the addition of an aliquot of memapsin 2. Aliquots were removed at time intervals, and combined with an equal volume of MALDI-TOF matrix (α-hydroxycinnamic acid in acetone, 20 mg/mL) and immediately spotted in duplicate onto a stainless-steel MALDI sample plate. MALDI-TOF mass spectrometry was performed on a PE Biosystems Voyager DE. The instrument was operated at 25,000 accelerating volts in positive mode with a 150 ns delay. Ions with a mass-to-charge ratio (m/z) were detected in the range of 650-2000 atomic mass units. Data were analyzed by the Voyager Data Explorer module to obtain ion intensity data for mass species of substrates and corresponding products in a given mixture. Relative product formation was calculated as the ratio of signal intensity of the product to the sum of signal intensities of both product and the corresponding substrate. Relative product formed per unit time was obtained from non-linear regression analysis of the data representing the initial 15% formation of product using the model:
where k was the relative hydrolytic rate constant and T was time in seconds. […]

[4] = target: cathepsin D (Homo sapiens, UniProt P07339); assay: Inhibition of cathepsin D activity (MALDI-TOF, substrate ELDLAVEFWHDR); format: biochemical
Procedure: [The source words this procedure for another target and reports this target under the same test.] as §1
where k was the relative hydrolytic rate constant and T was time in seconds. Initial rates were expressed relative to uninhibited controls and fit to a tight-binding model of competitive inhibition as above.

[5] = Hepatic intrinsic clearance in liver microsomes; format: in vitro ADME; conditions: human, pH 7.4, human liver microsomes, in vitro clearance, read-out: HLM CL
Outline: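 Human liver microsomes in pH 7.4 phosphate buffer with EDTA, preincubated 5 min at 37° C, then started with NADPH; samples taken at 0, 5, 10, 20 and 30 min and parent measured by LC/MS/MS. Remaining compound relative to 0 min gave half-life and k1, scaled to in vivo clearance per Davies and Morris.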

[6] = target: T3, CYP3A4 (Homo sapiens, UniProt P08684); assay: CYP3A4 inhibition (midazolam metabolism in human liver microsomes); format: in vitro ADME; conditions: substrate midazolam, read-out: CYP 3A4Ki
T3 construct: host or cells: human liver microsomes
Outline: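 Human liver microsomes (0.1 mg/mL) with midazolam at 1.25–10 μM and compound at 0.078–10 μM, in 100 mM phosphate pH 7.4 with NADPH regeneration at 37.2 °C, sampled at 20, 30 and 40 min. 1′-Hydroxymidazolam was quantified by LC-MS/MS. Ki was obtained by Dixon plots across substrate concentrations.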

[7] = substrate peptide ELDLAVEFWHDR, pH 4.1, 37 degrees C, read-out: CD Ki

Chain of cathepsin D (P07339 65-412, species assumed): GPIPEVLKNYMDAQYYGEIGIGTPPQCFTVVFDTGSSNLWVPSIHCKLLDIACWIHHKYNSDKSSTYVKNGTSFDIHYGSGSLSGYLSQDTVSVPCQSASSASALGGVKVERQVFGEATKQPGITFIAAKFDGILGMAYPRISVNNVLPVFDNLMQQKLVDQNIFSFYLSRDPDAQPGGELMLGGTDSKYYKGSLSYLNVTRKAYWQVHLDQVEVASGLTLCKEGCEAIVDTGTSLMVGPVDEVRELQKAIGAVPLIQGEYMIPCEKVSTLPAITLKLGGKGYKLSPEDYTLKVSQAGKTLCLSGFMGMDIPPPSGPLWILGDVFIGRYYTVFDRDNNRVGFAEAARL
T3 sequence (P08684 whole entry): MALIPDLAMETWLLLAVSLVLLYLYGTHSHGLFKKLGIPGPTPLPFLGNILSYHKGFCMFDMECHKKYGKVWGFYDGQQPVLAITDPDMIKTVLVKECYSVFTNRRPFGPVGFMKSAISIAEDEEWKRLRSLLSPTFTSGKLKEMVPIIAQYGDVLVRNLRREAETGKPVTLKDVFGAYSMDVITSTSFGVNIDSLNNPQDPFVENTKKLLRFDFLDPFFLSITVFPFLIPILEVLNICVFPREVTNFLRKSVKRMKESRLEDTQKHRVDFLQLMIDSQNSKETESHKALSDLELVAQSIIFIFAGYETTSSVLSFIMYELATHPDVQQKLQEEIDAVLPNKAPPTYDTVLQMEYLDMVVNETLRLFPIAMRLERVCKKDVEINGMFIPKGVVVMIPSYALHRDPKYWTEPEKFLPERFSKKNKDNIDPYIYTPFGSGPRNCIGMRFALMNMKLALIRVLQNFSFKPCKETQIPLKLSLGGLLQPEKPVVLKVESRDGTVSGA
Chain of memapsin 2 (Homo sapiens, UniProt P56817) (P56817 46-501): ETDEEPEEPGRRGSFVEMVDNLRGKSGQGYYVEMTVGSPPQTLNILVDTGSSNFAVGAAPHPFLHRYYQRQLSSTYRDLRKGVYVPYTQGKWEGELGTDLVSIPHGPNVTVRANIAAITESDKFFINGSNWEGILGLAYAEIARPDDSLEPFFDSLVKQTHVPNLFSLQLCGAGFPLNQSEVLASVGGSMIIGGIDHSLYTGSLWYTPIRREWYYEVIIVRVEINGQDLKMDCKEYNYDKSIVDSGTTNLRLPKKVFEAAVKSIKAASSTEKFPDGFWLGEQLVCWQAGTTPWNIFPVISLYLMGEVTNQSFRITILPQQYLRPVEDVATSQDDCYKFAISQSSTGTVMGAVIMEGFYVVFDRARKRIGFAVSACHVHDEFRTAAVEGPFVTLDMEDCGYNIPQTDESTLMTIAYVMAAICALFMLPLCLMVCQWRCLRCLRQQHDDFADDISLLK
T1 sequence (G3IAK4 22-501): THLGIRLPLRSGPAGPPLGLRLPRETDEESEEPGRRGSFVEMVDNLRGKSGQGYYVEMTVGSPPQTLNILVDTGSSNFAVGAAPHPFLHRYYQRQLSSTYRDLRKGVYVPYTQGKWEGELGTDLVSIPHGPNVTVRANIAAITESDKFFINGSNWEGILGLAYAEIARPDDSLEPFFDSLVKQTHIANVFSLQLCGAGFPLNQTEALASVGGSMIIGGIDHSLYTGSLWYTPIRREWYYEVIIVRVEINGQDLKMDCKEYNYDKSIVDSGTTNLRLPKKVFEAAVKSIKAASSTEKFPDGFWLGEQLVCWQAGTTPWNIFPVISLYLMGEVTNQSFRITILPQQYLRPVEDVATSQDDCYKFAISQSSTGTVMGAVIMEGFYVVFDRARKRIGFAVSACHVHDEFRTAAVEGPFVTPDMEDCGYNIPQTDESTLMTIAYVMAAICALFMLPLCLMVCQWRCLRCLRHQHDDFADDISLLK

Compound	Ki [1]	IC50 [2]	Ki [3]	Ki ([3]; substrate peptide ELDLAVEFWHDR, pH 4.1, 37 degrees C)	Ki ([4]; read-out: CathD Ki)	Ki [4, 7]	CLint scaled at 200 μM [5]	Ki [6]
Cc1csc([C@H]2CCCN2C(=O)c2cc(C(=O)N[C@@H](Cc3ccccc3)[C@H](O)[C@H]3C[C@@H](OCc4ccccc4)CN3)cc(-n3cccc3)c2)n1 [1-25, N-((1R,2S)-1-((2R,4R)-4-(benzyloxy)pyrrolidin-2-yl)-1-hydroxy-3-phenylpropan-2-yl)-3-((R)-2-(4-methylthiazol-2-yl)pyrrolidine-1-carbonyl)-5-(1H-pyrrol-1-yl)benzamide]	< 250 nM	< 500 nM	624 nM	> 500 nM	48.8 nM	< 300 nM		
Cc1csc([C@H]2CCCN2C(=O)c2cccc(C(=O)N[C@@H](Cc3cc(F)cc(F)c3)[C@H](O)[C@H]3CCCN3)c2)n1 [1-44, N-((1R,2S)-3-(3,5-difluorophenyl)-1-hydroxy-1-((R)-pyrrolidin-2-yl)propan-2-yl)-3-((R)-2-(4-methylthiazol-2-yl)pyrrolidine-1-carbonyl)benzamide]	< 250 nM	500 to 1000 nM				> 500 nM	< 400 mL/min/kg	1000 to 5000 nM
Cc1csc([C@H]2CCCN2C(=O)c2cc(C(=O)N[C@@H](Cc3ccccc3)[C@H](O)[C@H]3CCCN3)cc(-c3ncco3)c2)n1 [1-19, N-((1R,2S)-1-hydroxy-3-phenyl-1-((R)-pyrrolidin-2-yl)propan-2-yl)-3-((R)-2-(4-methylthiazol-2-yl)pyrrolidine-1-carbonyl)-5-(oxazol-2-yl)benzamide]	< 250 nM	< 500 nM				> 500 nM		> 10000 nM
Cc1csc([C@H]2CCCN2C(=O)c2cccc(C(=O)N[C@@H](Cc3ccccc3)[C@H](O)[C@H]3C[C@@H](OCc4ccccc4)CN3)c2)n1 [1-22, N-((1R,2S)-1-((2R,4R)-4-(benzyloxy)pyrrolidin-2-yl)-1-hydroxy-3-phenylpropan-2-yl)-3-((R)-2-(4-methylthiazol-2-yl)pyrrolidine-1-carbonyl)benzamide]	< 250 nM	< 500 nM				300 to 500 nM		1000 to 5000 nM
Cc1csc([C@H]2CCCN2C(=O)c2cc(C(=O)N[C@@H](Cc3ccccc3)[C@H](O)[C@H]3CCCN3)cc(N(C)S(C)(=O)=O)c2)n1 [1-23, N-((1R,2S)-1-hydroxy-3-phenyl-1-((R)-pyrrolidin-2-yl)propan-2-yl)-3-(N-methylmethylsulfonamido)-5-((R)-2-(4-methylthiazol-2-yl)pyrrolidine-1-carbonyl)benzamide]	< 250 nM	< 500 nM				> 500 nM		5000 to 10000 nM
Cc1csc([C@H]2CCCN2C(=O)c2cc(C(=O)N[C@@H](Cc3ccccc3)[C@H](O)[C@H]3CCCN3)cc(-c3cccc(C(F)(F)F)c3)c2)n1 [1-43, N-((1R,2S)-1-hydroxy-3-phenyl-1-((R)-pyrrolidin-2-yl)propan-2-yl)-5-((R)-2-(4-methylthiazol-2-yl)pyrrolidine-1-carbonyl)-3′-(trifluoromethyl)biphenyl-3-carboxamide]	< 250 nM	> 1000 nM				> 500 nM	< 400 mL/min/kg	

The remaining lines, values ahead:

Ki [1]	IC50 [2]	Ki [3]	Ki ([3]; substrate peptide ELDLAVEFWHDR, pH 4.1, 37 degrees C)	Ki ([4]; read-out: CathD Ki)	Ki [4, 7]	CLint scaled at 200 μM [5]	Ki [6]	Compound
< 250 nM					300 to 500 nM			Cc1coc([C@H]2CCCN2C(=O)c2cc(C(=O)N[C@@H](Cc3cc(F)cc(F)c3)[C@H](O)[C@H]3CCCN3)cc(-c3ncco3)c2)n1 [1-69, N-((1R,2S)-3-(3,5-difluorophenyl)-1-hydroxy-1-((R)-pyrrolidin-2-yl)propan-2-yl)-3-((R)-2-(4-methyloxazol-2-yl)pyrrolidine-1-carbonyl)-5-(oxazol-2-yl)benzamide]
< 250 nM	< 500 nM				< 300 nM			Cc1csc([C@H]2CCCN2C(=O)c2cc(C(=O)N[C@@H](Cc3cc(F)cc(F)c3)[C@H](O)[C@H]3CCCN3)cc(-c3ncco3)c2)n1 [1-49, N-((1R,2S)-3-(3,5-difluorophenyl)-1-hydroxy-1-((R)-pyrrolidin-2-yl)propan-2-yl)-3-((R)-2-(4-methylthiazol-2-yl)pyrrolidine-1-carbonyl)-5-(oxazol-2-yl)benzamide]
< 250 nM					> 500 nM			Cc1csc([C@H]2CCCN2C(=O)c2cccc(C(=O)N[C@@H](Cc3ccccc3)[C@H](O)[C@H]3C[C@@H](Oc4ccccc4)CN3)c2)n1 [1-74, N-((1R,2S)-1-hydroxy-1-((2R,4R)-4-phenoxypyrrolidin-2-yl)-3-phenylpropan-2-yl)-3-((R)-2-(4-methylthiazol-2-yl)pyrrolidine-1-carbonyl)benzamide]
< 250 nM					< 300 nM			C=CCO[C@H]1CN[C@@H]([C@@H](O)[C@H](Cc2ccccc2)NC(=O)c2cc(C(=O)N3CCC[C@@H]3c3nc(C)cs3)cc(-c3ncco3)c2)C1 [1-70, N-((1R,2S)-1-((2R,4R)-4-(allyloxy)pyrrolidin-2-yl)-1-hydroxy-3-phenylpropan-2-yl)-3-((R)-2-(4-methylthiazol-2-yl)pyrrolidine-1-carbonyl)-5-(oxazol-2-yl)benzamide]
< 250 nM					300 to 500 nM			Cc1csc([C@H]2CCCN2C(=O)c2cc(C(=O)N[C@@H](Cc3ccccc3)[C@H](O)[C@H]3C[C@@H](Oc4ccccc4)CN3)cc(-c3ncco3)c2)n1 [1-79, N-((1R,2S)-1-hydroxy-1-((2R,4R)-4-phenoxypyrrolidin-2-yl)-3-phenylpropan-2-yl)-3-((R)-2-(4-methylthiazol-2-yl)pyrrolidine-1-carbonyl)-5-(oxazol-2-yl)benzamide]
